Measurements taken from patent publication US9624245B2, “Macrocyclic compounds as HCV entry inhibitors” (priority 2013, dated 2017).
Like-named read-outs stand apart in the source and are kept apart here.

Tested on: HCV pseudoparticles, genotype 1a HCV E1 and E2 envelope (H77C isolate)
Assay: HCV pseudoparticle infection assay (luciferase reporter, Huh7 cells)
Format: cell-based, HCV genotype 1a (H77C)
Details: Hepatitis C virus, Huh-7, 48 h
[1] = read-out: EC50 (nM) 1a (H77C), class symbol, HCV pseudoparticle entry into Huh7 cells, luciferase measured 2 days after infection
[2] = read-out: EC50 (nM) 1a (H77C), HCV pseudoparticle entry into Huh7 cells, luciferase measured 2 days after infection, average of duplicates

Compound | EC50 [1] | EC50 [2]
C[C@H]1CNCC2(CNC(=O)c3ccc(cc3)Nc3nc(nc(OCC(F)(F)F)n3)NCc3ccc(cc3)OC1)COC2 [Example 6002] | 10 to 1000 nM | 
CC1(C)CNCC2(COC2)COc2ccc(cc2)CNc2nc(nc(OCC(F)(F)F)n2)Nc2ccc(cc2)C(=O)NC1 [Example 5001] | 0.01 to 10 nM | 0.796 nM
CC1(C)CNC(=O)C(=O)Nc2ccc(cc2)OCCCOc2ccc(cc2)CNc2nc(nc(OCC(F)(F)F)n2)Nc2ccc(cc2)C(=O)NC1 [Example 4002] | 0.01 to 10 nM | 
C=C1COc2ccc(cc2)CNc2nc(nc(OCC(F)(F)F)n2)Nc2ccc(cc2)C(=O)N2CCCN(CC2)C1 [Example 2002] | 10 to 1000 nM | 
C=C1COc2ccc(cc2)CNc2nc(nc(OCC(F)(F)F)n2)Nc2ccc(cc2)C(=O)N2CC3CN(C1)CC3C2 [Example 2004] | 10 to 1000 nM | 
O=C1NCCCNCC2(COC2)COc2ccc(cc2)CNc2nc(nc(OCC(F)(F)F)n2)Nc2ccc1cc2 [Example 6003] | 0.01 to 10 nM | 
CC1(C)CNC(=O)C(=O)Nc2ccc(cc2)OC/C=C/COc2ccc(cc2)CNc2nc(nc(OCC(F)(F)F)n2)Nc2ccc(cc2)C(=O)NC1 [Example 4004] | 10 to 1000 nM | 
C[C@H]1CNC2C3CN(CC32)C(=O)c2ccc(cc2)Nc2nc(nc(OCC(F)(F)F)n2)NCc2ccc(cc2)OC1 [Example 3001] | 10 to 1000 nM | 
CC1(C)CNC(=O)C(=O)Nc2ccc(cc2)OCCCCOc2ccc(cc2)CNc2nc(nc(OCC(F)(F)F)n2)Nc2ccc(cc2)C(=O)NC1 [Example 4001] | 10 to 1000 nM | 
C[C@@H]1COc2ccc(cc2)CNc2nc(nc(OCC(F)(F)F)n2)Nc2ccc(cc2)C(=O)N2CC3CCN(CC3C2)C1 (stereo partly drawn) [Example 3002] | 10 to 1000 nM | 116 nM
CC1(C)CNC(=O)C(=O)Nc2ccc(cc2)OCCOc2ccc(cc2)CNc2nc(nc(OCC(F)(F)F)n2)Nc2ccc(cc2)C(=O)NC1 [Example 4003] | 10 to 1000 nM | 23.6 nM
CC1(C)CNC(=O)C(=O)Nc2ccc(cc2)OC/C=C\COc2ccc(cc2)CNc2nc(nc(OCC(F)(F)F)n2)Nc2ccc(cc2)C(=O)NC1 [Example 4005] | 10 to 1000 nM | 
O=C1c2ccc(cc2)Nc2nc(nc(OCC(F)(F)F)n2)NCc2ccc(cc2)OCCCN2CCCNCCCN1CCC2 [Example 1002] | 0.01 to 10 nM | 5.32 nM
O=C1NCC2(CNCCCOc3ccc(cc3)CNc3nc(nc(OCC(F)(F)F)n3)Nc3ccc1cc3)COC2 [Example 6001] | 0.01 to 10 nM | 
O=C1c2ccc(cc2)Nc2nc(nc(OCC(F)(F)F)n2)NCc2ccc(cc2)OCCCN2CCC3(CCN1C3)C2 (stereo not drawn) [Example 1001] | 10 to 1000 nM | 160 nM
C=C1COc2ccc(cc2)CNc2nc(nc(OCC(F)(F)F)n2)Nc2ccc(cc2)C(=O)N2CC3(CN(C1)C3)C2 [Example 2003] | 0.01 to 10 nM | 3.08 nM
O=C1NCC2(CC2)CNCC2(COC2)COc2ccc(cc2)CNc2nc(nc(OCC(F)(F)F)n2)Nc2ccc1cc2 [Example 6005] | 0.01 to 10 nM | 
C[C@@H]1COc2ccc(cc2)CNc2nc(nc(OCC(F)(F)F)n2)Nc2ccc(cc2)C(=O)N2CC3(C)CN(C1)CC(C)(C2)C3=O [Example 3003] | 10 to 1000 nM | 34.3 nM
C=C1CNCC2CN(C2)C(=O)c2ccc(cc2)Nc2nc(nc(OCC(F)(F)F)n2)NCc2ccc(cc2)OC1 [Example 2001] | 0.01 to 10 nM | 
C[C@@H]1CNCC2(CNC(=O)c3ccc(cc3)Nc3nc(nc(OCC(F)(F)F)n3)NCc3ccc(cc3)OC1)COC2 [Example 6004] | 10 to 1000 nM | 
